Series [1] relates to Klebsiella pneumoniae (Catalog No. 43816, ATCC). The series can be described thus: Klebsiella peritoneal infection model. In kind it is in vivo, mouse. Here is the method:
RIVPA (SEQ ID NO. 5) treatment (24 mg/kg) was administered either IP (24 h prior to infection or 4 h post-infection) or IV (4 h post-infection) to female Balb/c mice (N=8/group) inoculated with Klebsiella pneumoniae (Catalog No. 43816, ATCC) at either 2.8×10^5 cfu (FIG. 13—panel A) or 5.3×10^2 cfu (FIG. 13—panel B) and survival was monitored over 24 h. A survival endpoint is shown for animals receiving the higher inoculum of bacteria (panel A).

Series [2] concerns leukopenic animals. The series can be described thus: infection studies in leukopenic animals (antibiotic interference). In kind it is in vivo.
Series [3] deals with S. aureus (Catalog No. 29213, ATCC). Put plainly: S. aureus thigh abscess infection model in neutropenic mice. The conditions noted are these: neutropenic female Swiss albino mice, 50 mg/kg IM 24 h prior to infection; 24 h after infection. The format is in vivo, mouse. How it is done:
Female Swiss albino mice (N=8/group) were rendered neutropenic by treatment with Cp (100 mg/kg), 3 and 1 days before IM infection with S. aureus (Catalog No. 29213, ATCC, ^˜9.5×10^5 cfu). RIVPA (SEQ ID NO. 5) (50 mg/kg) was administered IM 24 h prior to infection and vancomycin (100 mg/kg) was administered SC at 1, 6 and 18 h after infection. The number of bacterial cfu present in the infected thigh was assessed 24 h after initiation of infection in each group.

Series [4] has as its system MRSA (UC6685). Put plainly: MRSA peritoneal infection model in combination with vancomycin. In kind it is in vivo, mouse. The settings on record: female CF-1 mice, 50 mg/kg IV 48 or 72 h prior to inoculation, with vancomycin 3 mg/kg SC 1 and 5 h after infection; 5 days. How it is done:
RIVPA (SEQ ID NO. 5) (50 mg/kg) or saline treatment was administered IV either 48 or 72 h prior to inoculation with MRSA (UC6685; 8.2×10^7 colony forming units [cfu]) to female CF-1 mice (N=10/group). Vancomycin treatment (3 mg/kg) was administered subcutaneously (SC), 1 and 5 h after infection. Survival was monitored once daily for 5 days.

For series [5], the system named is whole blood. The series can be described thus: ex vivo LPS stimulation of whole blood from Phase 1 subjects. The format is cell-based, human. The conditions noted are these: dose range 0.15-2 mg/kg; 4 hours in vitro LPS stimulation of whole blood. Here is the method: In ex vivo investigations using blood samples obtained during the Phase 1 healthy human volunteer study, a number of cytokine and chemokine analytes were quantified after 4 hours of in vitro stimulation of whole blood with LPS. The inter-individual variability in analyte levels was larger than any variation in time or response to RIVPA (SEQ ID NO. 5) or placebo administration and the data were therefore self-normalized using the individual pre-dose analyte level to standardize all responses for each individual subject (the Activity Ratio). RIVPA (SEQ ID NO. 5) effects on the analyte Activity Ratios (ARs) were neither constant throughout time, nor linearly dose responsive.

In series [6] the test system is cynomolgus monkey. Put plainly: cardiovascular (CV)/pulmonary study in cynomolgus monkey. The format is in vivo. From the text: In summary, the major toxicological finding was an acute-onset respiratory depression, accompanied by labored breathing, recumbency and transient decreased activity.
Series [7] concerns Gram-positive and Gram-negative infections. The conditions noted are these: mouse, in vivo.
Series [8] in a line: metabolism and excretion. The settings on record: in vivo.
The test system of series [9] is MRSA (strain USA300). The series can be described thus: MRSA bacteremia model in nu/nu mice lacking T-cells. The conditions noted are these: female nu/nu mice, single dose 50 mg/kg IV 4 h prior to infection; 14 days. In kind it is in vivo, mouse. How it is done: RIVPA (SEQ ID NO. 5) is also effective when administered by itself. Multiple studies with IV administered RIVPA (SEQ ID NO. 5) were conducted in a MRSA bacteremia model. […] In the first study, MRSA (USA300, 7.3 log 10 cfu) was administered via IV injection into the tail vein of female Balb/c mice at time 0. Four hours prior to infection, a single dose of saline or RIVPA (SEQ ID NO. 5) at the indicated dose levels was injected IV into the tail vein. Sub-optimal antibiotic treatment (linezolid, 6.25 mg/kg) was administered once orally immediately after infection. Survival was monitored for 21 days after the infection. In the second study, RIVPA (SEQ ID NO. 5) (IV) or saline (IV) was administered once 4 h prior to infection with MRSA (strain USA300, 7.0 log10 cfu) via the tail vein into female nu/nu mice. Statistically significant differences (i.e., p≤05) in survival were found with the 50 mg/kg dose level as assessed using Kaplan Meier analysis of each treatment group relative to the saline control.

The test system of series [10] is CYP450 enzymes. The series can be described thus: processing by or inhibition of CYP450 enzymes. In kind it is in vitro ADME.
Series [11] has as its system CD-1 mice. Put plainly: recovery of circulating blood cells after induction of leukopenia. The conditions noted are these: Cp-induced leukopenia, 20 or 50 mg/kg IV on Days 5, 7, 9 and 11. In kind it is in vivo, mouse. How it is done:
Leukopenia was induced with 2 IP injections of Cp (150 mg/kg on Day 1 and 100 mg/kg on Day 4), resulting in well-established leukopenia by Day 4 that persisted until approximately Day 10. Saline or RIVPA (SEQ ID NO. 5) (20 or 50 mg/kg) was administered IV on Days 5, 7, 9 and 11. Six animals per group were sacrificed on each of Days 6, 8, 10, 12 and 14 and evaluated for complete blood count and differential. Neither the levels nor dynamics of the total leukocyte and differential white blood cell counts were altered during the course of recovery when compared to the vehicle control group (FIG. 15).

Series [12] concerns primary human leukemia cells. Put plainly: proliferation of primary human leukemia cells in vitro. The format is cell-based.

The results in this text go back to US11311598B2, “Peptides and analogs for use in the treatment of oral mucositis” (Soligenix, Inc., priority 2013, dated 2022).

Where no end group is shown, it is not given here. Some results are limits rather than exact numbers.

On to RIVPA-NH2 [RIVPA (SEQ ID NO. 5), RIVPA], for which, in [1] (24 mg/kg IV vs IP), the “systemic versus local administration” value is on record as “as good or better than local administration”. Also, the “survival at the lower inoculum” value in [1] (5.3×10^2 cfu, 24 h) is listed as “survived in all groups”. The survival result in series [1] (female Balb/c mice, 24 mg/kg IP or IV, 24 h) was “increased survival”; in series [4] it was “increased survival”. For the same substance, in series [2], the “interference with antibiotic efficacy” value is on record as “no interference”. The “bacterial load in the infected thigh” value in [3] is “significantly reduced”. Further, in series [5], the “anti-inflammatory status (TNF RII, IL-1ra vs TNFα, IL-1β Activity Ratios)” value is recorded as “evidence of an increase”. For the same substance, the clinical signs result in series [6] (80 mg/kg, during dosing) is “transient drooping eye lids and prostration”; in series [6] (220 mg/kg), “transient, severe clinical signs”. Further, the “respiratory/cardiovascular effects and mortality” value in series [6] (220 mg/kg, 1 animal) is “marked reduction in respiratory rate followed by bradycardia, hypotension and death”. The respiratory effects entry in series [6] (20 or 80 mg/kg) was “No respiratory effects”. For the same substance, the “cardiac toxicity or QT prolongation” value in [6] (nonhuman primates) is reported as “no cardiac toxicity or QT prolongation”. Moreover, the “cardiovascular effects and ECG parameters” value in [6] (single IV doses of 20 or 80 mg/kg) is recorded as “no cardiovascular effects or changes in electrocardiogram (ECG) parameters”. In addition, in [7], the “duration of pharmacodynamic effect” value is “up to 5 days”. For the same substance, the “dose levels with consistent efficacy” value in series [7] (iv) is reported as no less than 25 mg/kg. Besides, in [8], the primary metabolism entry is given as “proteases throughout body tissues”. In addition, in [8], the “role of urine, feces and bile excretion in clearance” value is given as “very minor role”. Moreover, in [9], the “survival over the saline control” value is “statistically significant enhanced survival”. The “inhibition of CYP450 enzymes” value in [10] is listed as “lack”. For the same substance, the “processing by CYP450 enzymes” value in series [10] is “lack”. For the same substance, the “recovery of circulating blood cell populations after induction of leukopenia” value in [11] is listed as “did not alter”. The “proliferation of primary leukemia cells” value in series [12] is on record as “did not promote the proliferation”.
